Test [1] relates to B6^dom1-specific T-cells (C3H.SW target cells coated with synthetic peptides). To be noted: previously shown; cited from earlier work.
Test [2] has the same test system. In words: 51Cr release cytotoxicity assay: peptide recognition by C3H.SW anti-C57BL/6 CTLs. Format: cell-based, mouse. Particulars: effector to target ratio 50:1, FIG. 1. On the procedure:
Cytotoxic activity was assessed in a standard ^51Cr release assay (Pion et al., 1997. Eur. J. Immunol. 27:421-430). Target blast cells, prepared by culturing C3H.SW spleen cells (3×10^6/ml) with 5 μg/ml of Concanavalin A (Con A; Sigma Chemical Co., St-Louis, Mo.) for 48 hours, were labeled with 100 μCi Na2^51Cr (Dupont Co., Wilmington, Del.) for 90 minutes, sensitized with synthetic peptides for 90 minutes, then mixed with C3H.SW anti-C57BL/6 effector cells at a 50:1 effector to target ratio. Cells were then incubated for 4 hours at 37° C. in a humidified atmosphere of 5% CO2. Afterwards, supernatants were harvested and counted in a gamma counter. All tests were done in triplicate. Spontaneous release was below 15%. Results are expressed as a percentage of specific lysis calculated as follows: % specific lysis=100×(experimental release−spontaneous release)/(maximum release−spontaneous release).

On to AAPDNRETF, for which the “Recognition by B6^dom1-specific T-cells” value in test [1] is “recognised by B6^dom1-specific T-cells”. Consider “KAPDNRDTL [synthetic peptide; product of the putative B6^dom1 allele found in B6^dom1− strains of mice]”, for which the “Recognition by B6^dom1-specific CTLs (specific lysis of peptide-coated C3H.SW targets)” value in test [2] (peptide even at 10^−5 M) is “not recognised”. Turning to KAPDNRETL [synthetic peptide], the “Recognition by B6^dom1-specific CTLs (specific lysis of peptide-coated C3H.SW targets)” value in test [2] (peptide at 10^−8 M) is “recognised more efficiently than the AAPDNRETF peptide”.

The values above are taken from patent US20030148285A1, “Mammalian SIMP protein, gene sequence and uses thereof in cancer therapy” (priority 2001, published 2003).
